Source: BindingDB's records for doi:10.1073/pnas.0708800104 (University of Oxford, 2007)
Values belong to the compound of their own block, whether it stands above or below them.

Columns and labels:
[1] = biological target: Proto-oncogene tyrosine-protein kinase Src (Homo sapiens) (UniProt P12931); test: Inhibition of cSrc
[2] = Inhibition of IGF1R-dependent tumor cell growth in human MCF7 cells

Sequence of Proto-oncogene tyrosine-protein kinase Src (Homo sapiens) (P12931 whole entry, looked up): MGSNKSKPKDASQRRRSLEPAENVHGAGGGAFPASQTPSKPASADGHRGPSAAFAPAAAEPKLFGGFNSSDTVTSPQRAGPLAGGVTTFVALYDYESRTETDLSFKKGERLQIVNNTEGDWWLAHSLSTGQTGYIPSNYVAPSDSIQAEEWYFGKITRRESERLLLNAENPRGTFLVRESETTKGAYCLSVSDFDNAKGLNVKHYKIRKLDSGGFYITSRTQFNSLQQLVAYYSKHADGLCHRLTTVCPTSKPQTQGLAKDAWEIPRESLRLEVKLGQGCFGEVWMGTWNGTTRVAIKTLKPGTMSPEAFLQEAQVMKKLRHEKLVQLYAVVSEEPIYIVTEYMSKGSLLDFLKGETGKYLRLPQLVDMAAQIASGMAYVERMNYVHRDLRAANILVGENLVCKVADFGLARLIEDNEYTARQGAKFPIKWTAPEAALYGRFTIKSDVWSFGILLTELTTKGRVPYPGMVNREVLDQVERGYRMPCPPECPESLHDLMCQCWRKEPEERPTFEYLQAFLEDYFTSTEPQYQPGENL

IC50 [1]: 19.8 µM
SMILES: CCN(CC)CCCCNc1ncc2cc(-c3cc(OC)cc(OC)c3)c(NC(=O)NC(C)(C)C)nc2n1

IC50 [2]: 8 µM
SMILES: COc1ccc(Cl)cc1NC(=O)Nc1cc(C)nc2ccccc12 [TCMDC-125497]

IC50 (Inhibition of Cdk5): 25 µM
SMILES: O=C1Nc2ccccc2/C1=C\c1c(Cl)[nH]c2ccccc12
